From ChEMBL document CHEMBL3046161, “Synthesis of potential antitubercular and antimicrobial s-triazine-based scaffolds via Suzuki cross-coupling reaction” (2013)
Converted amounts (≈) assume the structure as drawn.

Assays:
Type in all cases: functional
[1] = tested on: Salmonella typhi; experiment: Antibacterial activity against Salmonella enterica subsp. enterica serovar Typhi MTCC 733 assessed as growth inhibition at 3.12 to 50 ug/mL after 24 hr by agar disk diffusion method
[2] = tested on: Klebsiella pneumoniae; experiment: Antibacterial activity against Klebsiella pneumoniae MTCC 109 assessed as growth inhibition at 3.12 to 50 ug/mL after 24 hr by agar disk diffusion method
[3] = tested on: Klebsiella pneumoniae; experiment: Antibacterial activity against Klebsiella pneumoniae MTCC 109 assessed as growth inhibition after 24 hr by agar streak dilution method; conditions: MTCC 109, 24 h
[4] = tested on: Salmonella typhi; experiment: Antibacterial activity against Salmonella enterica subsp. enterica serovar Typhi MTCC 733 assessed as growth inhibition after 24 hr by agar streak dilution method; conditions: MTCC 733, 24 h
[5] = tested on: Pseudomonas aeruginosa; experiment: Antibacterial activity against Pseudomonas aeruginosa MTCC 741 assessed as growth inhibition after 24 hr by agar streak dilution method; conditions: MTCC 741, 24 h
[6] = tested on: Escherichia coli; experiment: Antibacterial activity against Escherichia coli MTCC 739 assessed as growth inhibition after 24 hr by agar streak dilution method; conditions: MTCC 739, 24 h
[7] = tested on: Bacillus cereus; experiment: Antibacterial activity against Bacillus cereus MTCC 430 assessed as growth inhibition after 24 hr by agar streak dilution method; conditions: MTCC 430, 24 h
[8] = tested on: Staphylococcus aureus; experiment: Antibacterial activity against Staphylococcus aureus MTCC 96 assessed as growth inhibition after 24 hr by agar streak dilution method; conditions: MTCC 96, 24 h
[9] = tested on: Mycobacterium tuberculosis; experiment: Antimycobacterial activity against Mycobacterium tuberculosis H37Rv assessed as growth inhibition at MIC after 12 to 28 days by Lowenstein and Jensen agar dilution method
[10] = tested on: Mycobacterium tuberculosis; experiment: Antimycobacterial activity against Mycobacterium tuberculosis H37Rv assessed as growth inhibition after 12 to 28 days by Lowenstein and Jensen agar dilution method
[11] = tested on: Mycobacterium tuberculosis; experiment: Antimycobacterial activity against Mycobacterium tuberculosis H37Rv assessed as growth inhibition measured within 10 days by BACTEC MGIT method; conditions: 240 h
[12] = tested on: Candida albicans; experiment: Antifungal activity against Candida albicans MTCC 183 assessed as growth inhibition at 3.12 to 50 ug/mL after 24 hr by agar disk diffusion method
[13] = tested on: Aspergillus clavatus; experiment: Antifungal activity against Aspergillus clavatus MTCC 1323 assessed as growth inhibition at 3.12 to 50 ug/mL after 24 hr by agar disk diffusion method
[14] = tested on: Aspergillus fumigatus; experiment: Antifungal activity against Aspergillus fumigatus MTCC 343 assessed as growth inhibition at 3.12 to 50 ug/mL after 24 hr by agar disk diffusion method
[15] = tested on: Aspergillus niger; experiment: Antifungal activity against Aspergillus niger MTCC 282 assessed as growth inhibition at 3.12 to 50 ug/mL after 24 hr by agar disk diffusion method
[16] = tested on: Candida albicans; experiment: Antifungal activity against Candida albicans MTCC 183 assessed as growth inhibition after 48 hr by agar streak dilution method; conditions: MTCC 183, 48 h
[17] = tested on: Aspergillus clavatus; experiment: Antifungal activity against Aspergillus clavatus MTCC 1323 assessed as growth inhibition after 48 hr by agar streak dilution method; conditions: MTCC 1323, 48 h
[18] = tested on: Aspergillus fumigatus; experiment: Antifungal activity against Aspergillus fumigatus MTCC 343 assessed as growth inhibition after 48 hr by agar streak dilution method; conditions: MTCC 343, 48 h
[19] = tested on: Aspergillus niger; experiment: Antifungal activity against Aspergillus niger MTCC 282 assessed as growth inhibition after 48 hr by agar streak dilution method; conditions: MTCC 282, 48 h
[20] = tested on: Shigella flexneri; experiment: Antibacterial activity against Shigella flexneri MTCC 1457 assessed as growth inhibition at 3.12 to 50 ug/mL after 24 hr by agar disk diffusion method
[21] = tested on: Proteus vulgaris; experiment: Antibacterial activity against Proteus vulgaris MTCC 1771 assessed as growth inhibition at 3.12 to 50 ug/mL after 24 hr by agar disk diffusion method
[22] = tested on: Pseudomonas aeruginosa; experiment: Antibacterial activity against Pseudomonas aeruginosa MTCC 741 assessed as growth inhibition at 3.12 to 50 ug/mL after 24 hr by agar disk diffusion method
[23] = tested on: Escherichia coli; experiment: Antibacterial activity against Escherichia coli MTCC 739 assessed as growth inhibition at 3.12 to 50 ug/mL after 24 hr by agar disk diffusion method
[24] = tested on: Bacillus cereus; experiment: Antibacterial activity against Bacillus cereus MTCC 430 assessed as growth inhibition at 3.12 to 50 ug/mL after 24 hr by agar disk diffusion method
[25] = tested on: Staphylococcus aureus; experiment: Antibacterial activity against Staphylococcus aureus MTCC 96 assessed as growth inhibition at 3.12 to 50 ug/mL after 24 hr by agar disk diffusion method
[26] = tested on: Shigella flexneri; experiment: Antibacterial activity against Shigella flexneri MTCC 1457 assessed as growth inhibition after 24 hr by agar streak dilution method; conditions: MTCC 1457, 24 h
[27] = tested on: Proteus vulgaris; experiment: Antibacterial activity against Proteus vulgaris MTCC 1771 assessed as growth inhibition after 24 hr by agar streak dilution method; conditions: MTCC 1771, 24 h

SMILES	inhibition zone (IZ) [1]	inhibition zone (IZ) [2]	MIC [3]	MIC [4]	MIC [5]	MIC [6]	MIC [7]	MIC [8]	growth inhibition (GI) [9]	MIC [10]	MIC [11]	inhibition zone (IZ) [12]	inhibition zone (IZ) [13]	inhibition zone (IZ) [14]	inhibition zone (IZ) [15]	MIC [16]	MIC [17]	MIC [18]	MIC [19]	inhibition zone (IZ) [20]	further results
CC1CC(C)CN(c2nc(-c3ccc(NCC(=O)Nc4nc5ccc(C#N)cc5s4)cc3)nc(N3CC(C)CC(C)C3)n2)C1 (stereo unspecified)	18 mm	27 mm	25 µg/mL (≈ 41 µM)	50 µg/mL (≈ 82 µM)	50 µg/mL (≈ 82 µM)	6.25 µg/mL (≈ 10.2 µM)	50 µg/mL (≈ 82 µM)	6.25 µg/mL (≈ 10.2 µM)	95%	100 µg/mL (≈ 164 µM)	> 6.25 µg/mL	<10 mm	16 mm	22 mm	19 mm	> 50 µg/mL	50 µg/mL (≈ 82 µM)	50 µg/mL (≈ 82 µM)	25 µg/mL (≈ 41 µM)	22 mm	inhibition zone (IZ) [21]: 22 mm; inhibition zone (IZ) [22]: 18 mm; inhibition zone (IZ) [23]: 25 mm; inhibition zone (IZ) [24]: 22 mm; inhibition zone (IZ) [25]: 24 mm; MIC [26]: 50 µg/mL (≈ 82 µM); MIC [27]: 25 µg/mL (≈ 41 µM)
Cc1ccc2nc(NC(=O)CNc3ccc(-c4nc(N5CC(C)CC(C)C5)nc(N5CC(C)CC(C)C5)n4)cc3)sc2c1 (stereo unspecified)	<10 mm	16 mm	50 µg/mL (≈ 83.5 µM)	50 µg/mL (≈ 83.5 µM)	50 µg/mL (≈ 83.5 µM)	50 µg/mL (≈ 83.5 µM)	50 µg/mL (≈ 83.5 µM)	50 µg/mL (≈ 83.5 µM)	97%	250 µg/mL (≈ 417 µM)	> 6.25 µg/mL	13 mm	<10 mm	<10 mm	<10 mm	50 µg/mL (≈ 83.5 µM)	> 50 µg/mL	> 50 µg/mL	50 µg/mL (≈ 83.5 µM)	12 mm	inhibition zone (IZ) [21]: 20 mm; inhibition zone (IZ) [22]: 15 mm; inhibition zone (IZ) [23]: 16 mm; inhibition zone (IZ) [24]: 19 mm; inhibition zone (IZ) [25]: 15 mm; MIC [26]: 50 µg/mL (≈ 83.5 µM); MIC [27]: 50 µg/mL (≈ 83.5 µM)
COc1ccc2nc(NC(=O)CNc3ccc(-c4nc(N5CC(C)CC(C)C5)nc(N5CC(C)CC(C)C5)n4)cc3)sc2c1 (stereo unspecified)	20 mm	23 mm	50 µg/mL (≈ 81.3 µM)	50 µg/mL (≈ 81.3 µM)	50 µg/mL (≈ 81.3 µM)	25 µg/mL (≈ 40.7 µM)	12.5 µg/mL (≈ 20.3 µM)	1.56 µg/mL (≈ 2.54 µM)	98%	12.5 µg/mL (≈ 20.3 µM)	> 6.25 µg/mL	25 mm	23 mm	<10 mm	19 mm	12.5 µg/mL (≈ 20.3 µM)	50 µg/mL (≈ 81.3 µM)	> 50 µg/mL	25 µg/mL (≈ 40.7 µM)	25 mm	inhibition zone (IZ) [21]: 27 mm; inhibition zone (IZ) [22]: 20 mm; inhibition zone (IZ) [23]: 20 mm; inhibition zone (IZ) [24]: 25 mm; inhibition zone (IZ) [25]: 26 mm; MIC [26]: 12.5 µg/mL (≈ 20.3 µM); MIC [27]: 6.25 µg/mL (≈ 10.2 µM)
